The assay relates to SRS-A. Kind of assay: Inhibitory action on the generation and release of SRS-A (sensitized guinea pig lung fragment; method of Orange and Moore, SRS-A assayed by method of Brocklehurst). It is filed as cell-based, guinea pig (Hartley strain). The settings on record: egg albumin antigen. An excerpt:
The action of the antiallergic agent of this invention to inhibit the production of SRS-A was investigated by the method of Orange and Moore [J. Immunol.

For baicalein phosphate disodium [BPS], the “Inhibitory action (percent inhibition of generation and release of SRS-A due to antigen-antibody interaction)” value is, setting by setting: (concentration 10 (so in the source)) 18.7 ± 6.6%; (concentration 100 (so in the source)) 50.8 ± 10.7%.

Values taken from US4358461A, “Antiallergic agent” (Takeda Chemical Industries, Ltd., priority 1980, dated 1982).
